Inhibition data for 23 compounds are collected here from patent publication US12528802B2, “Heterocyclic compound” (Takeda Pharmaceutical Company Limited, priority 2019, dated 2026).

This test deals with T1, glucosylceramide synthase (Homo sapiens, UniProt Q16739).
T1 construct: made in house; host or cells: Expi293F cells (transient expression, pcDNA3.3-TOPO vector); microsome fraction used as enzyme source
T1 sequence (Q16739 1-394): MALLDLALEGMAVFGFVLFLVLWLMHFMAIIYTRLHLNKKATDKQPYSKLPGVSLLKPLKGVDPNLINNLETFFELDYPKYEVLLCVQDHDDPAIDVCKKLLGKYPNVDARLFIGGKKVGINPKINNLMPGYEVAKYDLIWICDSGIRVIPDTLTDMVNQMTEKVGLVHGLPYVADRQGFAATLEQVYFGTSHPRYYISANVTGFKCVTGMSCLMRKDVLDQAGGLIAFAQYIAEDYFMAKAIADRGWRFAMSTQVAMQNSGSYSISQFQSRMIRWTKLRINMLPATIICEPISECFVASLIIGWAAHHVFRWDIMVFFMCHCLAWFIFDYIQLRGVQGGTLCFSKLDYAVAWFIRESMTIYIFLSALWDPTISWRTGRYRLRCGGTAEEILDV
The test can be described thus: Glucosylceramide synthase (GCS) enzyme assay, microsome fraction, C8 glucosylceramide quantified by Rapidfire MS/MS. The test is classed as biochemical. Particulars: test compound 10 μM; 1.7 μM UDP-glucose, 3 μM C8 ceramide; room temperature 60 min; read-out: GCS enzyme inhibitory rate at 10 μM (%) (% of control). The gist of the method: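 Test compound, 10 μM final, was run against human GCS from transfected Expi293F microsome fractions, using substrate solution of 6 μM C8 ceramide (in DOPC liposomes) plus 3.4 μM UDP-glucose, pH 7.5 Tris buffer, 60 min, room temperature. Product C8 glucosylceramide measured by Rapidfire MS/MS against an internal standard, % inhibition referenced to no-enzyme and DMSO wells.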
For the compound `O=C1c2ccnc(-c3ccccc3OCC(F)(F)F)c2CN1c1ccc(F)cn1` [Example 51, 2-(5-fluoropyridin-2-yl)-4-[2-(2,2,2-trifluoroethoxy)phenyl]-2,3-dihydro-1H-pyrrolo[3,4-c]pyridin-1-one], the inhibition at 10 µM was 99%.

In the case of `O=C1c2ccnc(-c3ccc(F)cc3OC(F)F)c2CN1c1ccc(F)cn1` [Example 52, 4-[2-(difluoromethoxy)-4-fluorophenyl]-2-(5-fluoropyridin-2-yl)-2,3-dihydro-1H-pyrrolo[3,4-c]pyridin-1-one], the inhibition at 10 µM was determined as 67%.

As to `O=C1c2ccnc(-c3ccc(F)cc3OC(F)F)c2CN1c1ccc(OC(F)F)cn1` [Example 53, 4-[2-(difluoromethoxy)-4-fluorophenyl]-2-[5-(difluoromethoxy)pyridin-2-yl]-2,3-dihydro-1H-pyrrolo[3,4-c]pyridin-1-one], the inhibition at 10 µM turned out to be 67%.

`O=C1c2ccnc(-c3ccccc3OCC(F)(F)F)c2CN1c1ccc(OC(F)F)cn1` [Example 54, 2-[5-(difluoromethoxy)pyridin-2-yl]-4-[2-(2,2,2-trifluoroethoxy)phenyl]-2,3-dihydro-1H-pyrrolo[3,4-c]pyridin-1-one]: the inhibition at 10 µM was determined as 100%.

As for `O=C1c2ccnc(-c3ccc(F)cc3OCC(F)(F)F)c2CN1c1ccc(OC(F)F)cn1` [Example 55, 2-[5-(difluoromethoxy)pyridin-2-yl]-4-[4-fluoro-2-(2,2,2-trifluoroethoxy)phenyl]-2,3-dihydro-1H-pyrrolo[3,4-c]pyridin-1-one], the inhibition at 10 µM is 98%.

Take `O=C1c2ccnc(-c3ccccc3OCC(F)(F)F)c2CN1c1ccc(OC(F)(F)F)cn1` [Example 56, 4-[2-(2,2,2-trifluoroethoxy)phenyl]-2-[5-(trifluoromethoxy)pyridin-2-yl]-2,3-dihydro-1H-pyrrolo[3,4-c]pyridin-1-one]: the inhibition at 10 µM came out at 100%.

Take `O=C1c2ccnc(-c3ccc(F)cc3OC(F)F)c2CN1c1ccc(OC(F)(F)F)cn1` [Example 57, 4-[2-(difluoromethoxy)-4-fluorophenyl]-2-[5-(trifluoromethoxy)pyridin-2-yl]-2,3-dihydro-1H-pyrrolo[3,4-c]pyridin-1-one]: the inhibition at 10 µM is 74%.

On to `O=C1c2ccnc(-c3ccc(F)cc3OCC(F)(F)F)c2CN1c1ccc(OC(F)(F)F)cn1` [Example 58, 4-[4-fluoro-2-(2,2,2-trifluoroethoxy)phenyl]-2-[5-(trifluoromethoxy)pyridin-2-yl]-2,3-dihydro-1H-pyrrolo[3,4-c]pyridin-1-one], for which the inhibition at 10 µM turned out to be 96%.

Regarding `O=C1c2ccnc(-c3ccc(F)cc3OCC(F)(F)F)c2CN1c1ccc(F)cn1` [Example 59, 2-(5-fluoropyridin-2-yl)-4-[4-fluoro-2-(2,2,2-trifluoroethoxy)phenyl]-2,3-dihydro-1H-pyrrolo[3,4-c]pyridin-1-one], the inhibition at 10 µM is 88%.

For the compound `O=C1c2ccnc(-c3ccccc3OCC(F)(F)F)c2CN1c1ccc(C(F)(F)F)cn1` [Example 60, 4-[2-(2,2,2-trifluoroethoxy)phenyl]-2-[5-(trifluoromethyl)pyridin-2-yl]-2,3-dihydro-1H-pyrrolo[3,4-c]pyridin-1-one], the inhibition at 10 µM was 99%.

Turning to `O=C1c2ccnc(-c3ccc(F)cc3OCC(F)(F)F)c2CN1c1ccc(C(F)(F)F)cn1` [Example 61, 4-[4-fluoro-2-(2,2,2-trifluoroethoxy)phenyl]-2-[5-(trifluoromethyl)pyridin-2-yl]-2,3-dihydro-1H-pyrrolo[3,4-c]pyridin-1-one], the inhibition at 10 µM is 85%.

With `O=C1c2ccnc(-c3ccccc3OC(F)F)c2CN1c1ccc(OC(F)(F)F)cn1` [Example 62, 4-[2-(difluoromethoxy)phenyl]-2-[5-(trifluoromethoxy)pyridin-2-yl]-2,3-dihydro-1H-pyrrolo[3,4-c]pyridin-1-one], the inhibition at 10 µM was 95%.

Regarding `O=C1c2ccnc(-c3ccccc3OC(F)F)c2CN1c1ccc(F)cn1` [Example 63, 4-[2-(difluoromethoxy)phenyl]-2-(5-fluoropyridin-2-yl)-2,3-dihydro-1H-pyrrolo[3,4-c]pyridin-1-one], the inhibition at 10 µM came out at 96%.

Consider `O=C1c2ccnc(-c3ccccc3OC(F)F)c2CN1c1ccc(OC(F)F)cn1` [Example 64, 4-[2-(difluoromethoxy)phenyl]-2-[5-(difluoromethoxy)pyridin-2-yl]-2,3-dihydro-1H-pyrrolo[3,4-c]pyridin-1-one], for which the inhibition at 10 µM was 96%.

In the case of `O=C1c2ccnc(-c3ccc(F)cc3OCC(F)(F)F)c2CN1c1ccc(OC(F)F)nc1` [Example 65, 2-[6-(difluoromethoxy)pyridin-3-yl]-4-[4-fluoro-2-(2,2,2-trifluoroethoxy)phenyl]-2,3-dihydro-1H-pyrrolo[3,4-c]pyridin-1-one], the inhibition at 10 µM was 95%.

`O=C1c2ccnc(-c3ccccc3OC(F)F)c2CN1c1ccc(C(F)(F)F)cn1` [Example 67, 4-[2-(difluoromethoxy)phenyl]-2-[5-(trifluoromethyl)pyridin-2-yl]-2,3-dihydro-1H-pyrrolo[3,4-c]pyridin-1-one]: the inhibition at 10 µM stood at 95%.

`N#Cc1ccc(N2Cc3c(ccnc3-c3ccccc3OCC(F)(F)F)C2=O)cc1` [Example 68, 4-{1-oxo-4-[2-(2,2,2-trifluoroethoxy)phenyl]-1,3-dihydro-2H-pyrrolo[3,4-c]pyridin-2-yl}benzonitrile]: the inhibition at 10 µM came out at 87%.

Turning to `N#Cc1ccc(N2Cc3c(ccnc3-c3ccc(F)cc3OC(F)F)C2=O)nc1` [Example 70, 6-{4-[2-(difluoromethoxy)-4-fluorophenyl]-1-oxo-1,3-dihydro-2H-pyrrolo[3,4-c]pyridin-2-yl}pyridine-3-carbonitrile], the inhibition at 10 µM was determined as 53%.

As for `N#Cc1ccc(N2Cc3c(ccnc3-c3ccc(F)cc3OCC(F)(F)F)C2=O)nc1` [Example 71, 6-{4-[4-fluoro-2-(2,2,2-trifluoroethoxy)phenyl]-1-oxo-1,3-dihydro-2H-pyrrolo[3,4-c]pyridin-2-yl}pyridine-3-carbonitrile], the inhibition at 10 µM was 99%.

Consider `N#Cc1ccc(N2Cc3c(ccnc3-c3ccccc3OCC(F)(F)F)C2=O)nc1` [Example 72, 6-{1-oxo-4-[2-(2,2,2-trifluoroethoxy)phenyl]-1,3-dihydro-2H-pyrrolo[3,4-c]pyridin-2-yl}pyridine-3-carbonitrile], for which the inhibition at 10 µM was determined as 100%.

As to `N#Cc1ccc(N2Cc3c(ccnc3-c3ccccc3OC(F)F)C2=O)nc1` [Example 73, 6-{4-[2-(difluoromethoxy)phenyl]-1-oxo-1,3-dihydro-2H-pyrrolo[3,4-c]pyridin-2-yl}pyridine-3-carbonitrile], the inhibition at 10 µM was found to be 90%.

Consider `O=C1c2ccnc(-c3ccccc3OC(F)F)c2CN1c1ccc(OC(F)F)nc1` [Example 74, 4-[2-(difluoromethoxy)phenyl]-2-[6-(difluoromethoxy)pyridin-3-yl]-2,3-dihydro-1H-pyrrolo[3,4-c]pyridin-1-one], for which the inhibition at 10 µM was 91%.

With `O=C1c2ccnc(-c3ccccc3OCC(F)(F)F)c2CN1c1ccc(OC(F)F)nc1` [Example 75, 2-[6-(difluoromethoxy)pyridin-3-yl]-4-[2-(2,2,2-trifluoroethoxy)phenyl]-2,3-dihydro-1H-pyrrolo[3,4-c]pyridin-1-one], the inhibition at 10 µM was determined as 100%.
